From patent publication US20070128217A1 (priority 2003, published 2007)

Experiments:
[1] = tested on: antibodies in sera from SARS patients (sera 1a, 1b, 2, 6, 37, 62, London, SARS-yellow, SARS-green); assay type: binding, human; design: Binding of serum 6 to linear peptides of protein X1 of SARS-CoV Urbani / Binding of serum 37 to linear peptides of protein X1 of SARS-CoV Urbani / Binding of serum 6 to looped/cyclic peptide (PEPSCAN-ELISA) / Binding of serum 37 to looped/cyclic peptide (PEPSCAN-ELISA) / Binding of serum 37 to looped/cyclic peptides of protein X1 of SARS-CoV Urbani / Binding of serum 6 to linear peptides of protein X2 / Binding of serum 37 to linear peptides of protein X2 / Binding of serum 37 to looped/cyclic peptides of protein X2 of SARS-CoV Urbani / Binding of serum 6 to linear peptides of protein M of SARS-CoV Urbani / Binding of serum 37 to linear peptides of protein M of SARS-CoV Urbani / Binding of serum 6 to looped/cyclic peptides of protein M of SARS-CoV Urbani / Binding of serum 37 to looped/cyclic peptides of protein M of SARS-CoV Urbani / Binding of serum 6 to linear peptides of protein X3 of SARS-CoV Urbani / Binding of serum 37 to linear peptides of protein X3 of SARS-CoV Urbani / Binding of serum 37 to looped/cyclic peptides of protein X3 of SARS-CoV Urbani / Binding of serum 6 to linear peptides of protein X4 of SARS-CoV Urbani / Binding of serum 37 to linear peptides of protein X4 of SARS-CoV Urbani / Binding of serum 37 to looped/cyclic peptides of protein X4 of SARS-CoV Urbani / Binding of serum 6 to linear peptides of protein X5 of SARS-CoV Urbani / Binding of serum 37 to linear peptides of protein X5 of SARS-CoV Urbani / Binding of serum 37 to looped/cyclic peptides of protein X5 of SARS-CoV Urbani / Binding of serum 6 to linear peptides of protein N of SARS-CoV Urbani / Binding of serum 37 to linear peptides of protein N of SARS-CoV Urbani / Binding of serum 6 to linear peptide (PEPSCAN-ELISA) / Binding of serum 1a to looped/cyclic peptides of protein N of SARS-CoV Urbani / Binding of serum 1b to looped/cyclic peptides of protein N of SARS-CoV Urbani / Binding of serum 2 to looped/cyclic peptides of protein N of SARS-CoV Urbani / Binding of serum 6 to looped/cyclic peptides of protein N of SARS-CoV Urbani / Binding of serum 37 to looped/cyclic peptides of protein N of SARS-CoV Urbani / Binding of serum 62 to looped/cyclic peptides of protein N of SARS-CoV Urbani / Binding of serum London to looped/cyclic peptides of protein N of SARS-CoV Urbani / Binding of serum SARS-green to looped/cyclic peptides of protein N of SARS-CoV Urbani: unit not given here
[2] = tested on: control sera (pooled serum of ten healthy LUMC hospital workers; commercial negative donor pooled serum from the Dutch bloodbank); assay type: binding, human; design: Binding of Control serum LUMC to linear peptides / Binding of Control serum Blood-bank to linear peptides / Binding of Control serum LUMC to looped peptides / Binding of Control Serum Blood-Bank to Looped peptides / Binding of Control serum LUMC to linear peptides of the protein M of SARS-CoV Urbani / Binding of Control serum Blood-bank to linear peptides of the protein M of SARS-CoV Urbani / Binding of Control serum LUMC to looped peptides of the protein M of SARS-CoV Urbani / Binding of Control Serum Blood-Bank to Looped peptides of the protein M of SARS-CoV Urbani: unit not given here
[3] = tested on: rabbit serum obtained by immunizing a rabbit with the SARS-CoV strain Frankfurt 1; assay type: binding; design: Binding of a rabbit serum to linear peptides / Binding of a rabbit serum to looped peptides / Rabbit serum linear peptides / Rabbit serum looped peptides / Binding of a rabbit serum to linear peptides of protein N of SARS-CoV Urbani (Rabbit serum linear peptides) / Binding of a rabbit serum to looped/cyclic peptides of protein N of SARS-CoV Urbani (Rabbit serum looped peptides): unit not given here

TSRTLSYYKLGASQR
0.6: Binding of serum 37 to looped/cyclic peptides of protein M of SARS-CoV Urbani [1] | Binding of serum 62 to looped/cyclic peptides of protein M of SARS-CoV Urbani [1] | Binding of Control Serum Blood-Bank to Looped peptides of the protein M of SARS-CoV Urbani [2]
0.5: Binding of serum 62 to linear peptides of protein M of SARS-CoV Urbani [1] | Binding of serum London to linear peptides of protein M of SARS-CoV Urbani [1] | Binding of serum SARS-yellow to linear peptides of protein M of SARS-CoV Urbani [1]
0.3: Binding of serum 1b to looped/cyclic peptides of protein M of SARS-CoV Urbani [1] | Binding of serum SARS-green to looped/cyclic peptides of protein M of SARS-CoV Urbani [1] | Rabbit serum linear peptides [3]
0.7: Binding of serum 1a to linear peptides of protein M of SARS-CoV Urbani [1] | Binding of serum 1a to looped/cyclic peptides of protein M of SARS-CoV Urbani [1] | Binding of serum 1b to linear peptides of protein M of SARS-CoV Urbani [1] | Binding of serum 2 to linear peptides of protein M of SARS-CoV Urbani [1] | Binding of serum 2 to looped/cyclic peptides of protein M of SARS-CoV Urbani [1] | Binding of serum 37 to linear peptides of protein M of SARS-CoV Urbani [1] | Binding of serum London to looped/cyclic peptides of protein M of SARS-CoV Urbani [1] | Binding of serum SARS-green to linear peptides of protein M of SARS-CoV Urbani [1]
1.1: Rabbit serum looped peptides [3]
0.9: Binding of serum 6 to linear peptides of protein M of SARS-CoV Urbani [1] | Binding of serum SARS-yellow to looped/cyclic peptides of protein M of SARS-CoV Urbani [1] | Binding of Control serum Blood-bank to linear peptides of the protein M of SARS-CoV Urbani [2]
0.8: Binding of Control serum LUMC to looped peptides of the protein M of SARS-CoV Urbani [2]
1.3: Binding of serum 6 to looped/cyclic peptides of protein M of SARS-CoV Urbani [1]
1.0: Binding of Control serum LUMC to linear peptides of the protein M of SARS-CoV Urbani [2]

TDTIVVTEGDGISTP
0.4: Binding of serum 1a to looped/cyclic peptides of protein X1 of SARS-CoV Urbani [1] | Binding of serum 2 to linear peptides of protein X1 of SARS-CoV Urbani [1] | Binding of serum 62 to linear peptides of protein X1 of SARS-CoV Urbani [1] | Binding of serum SARS-yellow to looped/cyclic peptides of protein X1 of SARS-CoV Urbani [1] | Binding of Control Serum Blood-Bank to Looped peptides [2] | Binding of Control serum LUMC to looped peptides [2]
0.5: Binding of serum 1b to linear peptides of protein X1 of SARS-CoV Urbani [1] | Binding of serum 6 to linear peptides of protein X1 of SARS-CoV Urbani [1] | Binding of serum 37 to linear peptides of protein X1 of SARS-CoV Urbani [1] | Binding of Control serum Blood-bank to linear peptides [2] | Binding of Control serum LUMC to linear peptides [2]
0.2: Binding of serum 2 to looped/cyclic peptides of protein X1 of SARS-CoV Urbani [1] | Binding of serum 6 to looped/cyclic peptides of protein X1 of SARS-CoV Urbani [1] | Binding of serum London to linear peptides of protein X1 of SARS-CoV Urbani [1] | Binding of serum SARS-green to looped/cyclic peptides of protein X1 of SARS-CoV Urbani [1] | Binding of serum SARS-yellow to linear peptides of protein X1 of SARS-CoV Urbani [1]
0.6: Binding of serum 1a to linear peptides of protein X1 of SARS-CoV Urbani [1]
0.3: Binding of serum 1b to looped/cyclic peptides of protein X1 of SARS-CoV Urbani [1] | Binding of serum 37 to looped/cyclic peptides of protein X1 of SARS-CoV Urbani [1] | Binding of serum 62 to looped/cyclic peptides of protein X1 of SARS-CoV Urbani [1] | Binding of serum SARS-green to linear peptides of protein X1 of SARS-CoV Urbani [1] | Binding of a rabbit serum to looped peptides [3]
0.1: Binding of serum London to looped/cyclic peptides of protein X1 of SARS-CoV Urbani [1] | Binding of a rabbit serum to linear peptides [3]
